Laboratory results reported in patent US20150157021A1, “NEW ANTIFUNGAL COMPOSITIONS” (DSM IP ASSETS B.V., priority 2012, published 2015).

What was measured:
Assay type in all cases: in vivo
Botrytis cinerea [1] = test: Treatment of wounded strawberries inoculated with Botrytis cinerea (Examples 5, 6); conditions: for Observed antifungal activity O (%): strawberries, 20° C.
Experimental: Twelve fresh, organic strawberries were used per treatment. Each strawberry was wounded with a 0.5 mm long cut and each wound was inoculated with 10 μl of a Botrytis cinerea suspension containing 1×10^5 of spores/ml. After a 3-hour incubation period at 20° C., each strawberry was dipped individually for 1 minute in a freshly prepared aqueous antifungal composition comprising either 500 ppm natamycin (DSM Food Specialties, Delft, The Netherlands), 500 ppm fenhexamid or both. Each antifungal composition also comprised 3.2% (w/w) beeswax, 0.8% (w/w) glycerol, 0.7% (w/w) polyoxyethylene sorbitan monostearate (Tween 60), 0.1% (w/w) polyoxyethylene sorbitan monooleate (Tween 80), 0.05% (w/w) methylhydroxyethyl-cellulose (MHEC), 0.03% (w/w) anti-foaming agent, 0.02% (w/w) xanthan gum, 0.02% (w/w) citric acid, 0.01% (w/w) lactic acid and 0.01% potassium sorbate. A composition without natamycin or fenhexamid was used as control. […] The treated strawberries were incubated in a closed box in the dark at 20° C. for 11 days.
The expected antifungal activity (E in %) of the combined antifungal composition comprising both active ingredients was calculated according to the Colby equation (Colby, 1967): […]
wherein X and Y are the observed antifungal activities (in %) of the individual active ingredients X and Y, respectively.
The experiment was conducted as described in Example 5, except for the fact that each wounded and inoculated strawberry was dipped individually for 1 minute in a freshly prepared aqueous antifungal composition comprising either 250 ppm natamycin (DSM Food Specialties, Delft, The Netherlands), 250 ppm fenhexamid or both. The treated strawberries were incubated in a closed box in the dark at 20° C. for 10 days. During incubation, the treated strawberries were assessed on mould growth according to the two methods described in Example 5.

Botrytis cinerea [2] = test: Treatment of wounded sweet peppers inoculated with Botrytis cinerea (Examples 9, 10); conditions: 20° C., 400 ppm natamycin
Experimental: Ten fresh, organic sweet peppers were used per treatment. Each sweet pepper was soaked in a 180 ppm hypochlorite solution for 10 minutes, then rinsed thoroughly with fresh tap water and dried. The peel of each disinfected sweet pepper was wounded once using a cork borer according to the method described by de Lapeyre de Bellaire and Dubois (1987). Subsequently, each wound was inoculated with 10 μl of a Botrytis cinerea suspension containing 1×10^5 of spores/ml. After incubation for 3 hours at 20° C., each wound and the skin area of 0.5 cm around the wound was treated with in total 75 μl of a freshly prepared aqueous antifungal composition comprising either 400 ppm natamycin (DSM Food Specialties, Delft, The Netherlands), 600 ppm fenhexamid or both. Each antifungal composition also comprised 3.2% (w/w) beeswax, 0.8% (w/w) glycerol, 0.7% (w/w) polyoxyethylene sorbitan monostearate (Tween 60), 0.2% (w/w) polyoxyethylene sorbitan monooleate (Tween 80), 0.05% (w/w) methylhydroxyethyl-cellulose (MHEC), 0.03% (w/w) anti-foaming agent, 0.02% (w/w) xanthan gum, 0.02% (w/w) citric acid, 0.01% (w/w) lactic acid and 0.01% potassium sorbate. A composition without natamycin or fenhexamid was used as control.
The treated sweet peppers were incubated in a closed box in the dark at 20° C. and assessed on mould growth during a 26-day incubation period. The antifungal activity (in %) of the individual and combined active ingredients was determined by calculating the reduction in mould growth observed on the sweet peppers treated with the antifungal composition in comparison to the mould growth on the sweet peppers treated with the control composition according to the Colby method (Colby, 1967) described in Example 5.
The experiment was conducted as described in Example 9, except for the fact that each wounded and inoculated sweet pepper was treated with 75 μl of a freshly prepared aqueous antifungal composition comprising either 400 ppm natamycin (DSM Food Specialties, Delft, The Netherlands), 800 ppm carboxin or both. The treated sweet peppers were incubated in a closed box in the dark at 20° C. and assessed on mould growth during a 26-day incubation period. During incubation, the treated sweet peppers were assessed on mould growth according to the method described in Example 9.

Penicillium italicum = test: Treatment of wounded oranges inoculated with Penicillium italicum (Examples 7, 8); conditions: 20° C.
Experimental: Ten fresh, organic oranges were used per treatment. Each orange was soaked in a 180 ppm hypochlorite solution for 10 minutes, then rinsed thoroughly with fresh tap water and dried. The peel of each disinfected orange was wounded once using a cork borer according to the method described by de Lapeyre de Bellaire and Dubois (1987). Subsequently, each wound was inoculated with 10 μl of a Penicillium italicum suspension containing 1×10^5 of spores/ml. After incubation for 3 hours at 20° C., each wound and the orange peel area of 1 cm around the wound was treated with in total 150 μl of a freshly prepared aqueous antifungal composition comprising either 500 ppm natamycin (DSM Food Specialties, Delft, The Netherlands), 800 ppm boscalid or both. Each antifungal composition also comprised 3.2% (w/w) beeswax, 0.8% (w/w) glycerol, 0.7% (w/w) polyoxyethylene sorbitan monostearate (Tween 60), 0.2% (w/w) polyoxyethylene sorbitan monooleate (Tween 80), 0.05% (w/w) methylhydroxyethyl-cellulose (MHEC), 0.03% (w/w) anti-foaming agent, 0.02% (w/w) xanthan gum, 0.02% (w/w) citric acid, 0.01% (w/w) lactic acid and 0.01% potassium sorbate. A composition without natamycin or boscalid was used as control. […] The treated oranges were incubated in a closed box in the dark at 20° C. and assessed on mould growth during a 17-day incubation period. The antifungal activity (in %) of the individual and combined active ingredients was determined by calculating the reduction in mould growth observed on the oranges treated with the antifungal composition in comparison to the mould growth on the oranges treated with the control composition according to the Colby method (Colby, 1967) described in Example 5.
The experiment was conducted as described in Example 7, except for the fact that each wounded and inoculated orange was treated with 150 μl of a freshly prepared aqueous antifungal composition comprising either 250 ppm natamycin (DSM Food Specialties, Delft, The Netherlands), 400 ppm boscalid or both. The treated oranges were incubated in a closed box in the dark at 20° C. and assessed on mould growth during a 18-day incubation period. During incubation, the treated oranges were assessed on mould growth according to the method described in Example 7.

SMILES: CC1(C(=O)Nc2ccc(O)c(Cl)c2Cl)CCCCC1 [Fenhexamid, fenhexamid]
- Number of moulded strawberries/total number of 12 strawberries (Botrytis cinerea [1]; Day 5, 20° C., 250 ppm natamycin, 250 ppm fenhexamid or both): 11/12
- Number of moulded strawberries/total number of 12 strawberries (Botrytis cinerea [1]; Day 5, 20° C., 250 ppm natamycin, 250 ppm fenhexamid or both, listed as fenhexamid): 11
- Number of moulded strawberries/total number of 12 strawberries (Botrytis cinerea [1]; Day 6, 20° C., 500 ppm natamycin, 500 ppm fenhexamid or both): 12/12
- Number of moulded strawberries/total number of 12 strawberries (Botrytis cinerea [1]; Day 6-7, 20° C., 250 ppm natamycin, 250 ppm fenhexamid or both): 11/12
- Number of moulded strawberries/total number of 12 strawberries (Botrytis cinerea [1]; Day 6-7, 20° C., 250 ppm natamycin, 250 ppm fenhexamid or both, listed as fenhexamid): 11
- Number of moulded strawberries/total number of 12 strawberries (Botrytis cinerea [1]; Day 7-8, 20° C., 500 ppm natamycin, 500 ppm fenhexamid or both): 12/12
- Number of moulded strawberries/total number of 12 strawberries (Botrytis cinerea [1]; Day 8, 20° C., 250 ppm natamycin, 250 ppm fenhexamid or both): 12/12
- Number of moulded strawberries/total number of 12 strawberries (Botrytis cinerea [1]; Day 8, 20° C., 250 ppm natamycin, 250 ppm fenhexamid or both, listed as fenhexamid): 12
- Number of moulded strawberries/total number of 12 strawberries (Botrytis cinerea [1]; Day 9, 20° C., 500 ppm natamycin, 500 ppm fenhexamid or both): 12/12
- Number of moulded strawberries of 12 (Botrytis cinerea [1]; after 6 through 9 days of incubation, 500 ppm natamycin alone or 500 ppm fenhexamid alone): 12
- Observed antifungal activity O (%) (Botrytis cinerea [1]; 4 days, 500 ppm natamycin, 500 ppm fenhexamid or both): 22%
- Observed antifungal activity O (%) (Botrytis cinerea [1]; 5 days, 500 ppm natamycin, 500 ppm fenhexamid or both): 25%
- Observed antifungal activity O (%) (Botrytis cinerea [1]; 6 days, 500 ppm natamycin, 500 ppm fenhexamid or both): 0%
- Observed antifungal activity O (%) (Botrytis cinerea [1]; 7 days, 500 ppm natamycin, 500 ppm fenhexamid or both): 0%
- Observed antifungal activity O (%) (Botrytis cinerea [1]; 8 days, 250 ppm natamycin, 250 ppm fenhexamid or both): 7.5%
- Observed antifungal activity O (%) (Botrytis cinerea [1]; 8 days, 500 ppm natamycin, 500 ppm fenhexamid or both): 0%
- Observed antifungal activity O (%) (Botrytis cinerea [1]; 9 days, 250 ppm natamycin, 250 ppm fenhexamid or both): 0%
- Observed antifungal activity O (%) (Botrytis cinerea [1]; 9 days, 500 ppm natamycin, 500 ppm fenhexamid or both): 0%
- Observed antifungal activity O (%) (Botrytis cinerea [1]; 10 days, 250 ppm natamycin, 250 ppm fenhexamid or both): 0%
- Observed antifungal activity O (%) (Botrytis cinerea [1]; 10 days, 500 ppm natamycin, 500 ppm fenhexamid or both): 0%
- Observed antifungal activity O (%) (Botrytis cinerea [1]; 11 days, 500 ppm natamycin, 500 ppm fenhexamid or both): 0%
- Observed antifungal activity O (%) (Botrytis cinerea [2]; 13-17 days, 600 ppm fenhexamid or both): 0%
- Observed antifungal activity O (%) (Botrytis cinerea [2]; 18-22 days, 600 ppm fenhexamid or both): 0%
- Observed antifungal activity O (%) (Botrytis cinerea [2]; 6 days, 600 ppm fenhexamid or both): 0%
- Observed antifungal activity O (%) (Botrytis cinerea [2]; 8 days, 600 ppm fenhexamid or both): 0%
- Observed antifungal activity O (%) (Botrytis cinerea [2]; 10 days, 600 ppm fenhexamid or both): 00%
- Observed antifungal activity O (%) (Botrytis cinerea [2]; 11 days, 600 ppm fenhexamid or both): 0%
- Observed antifungal activity O (%) (Botrytis cinerea [2]; 24 days, 600 ppm fenhexamid or both): 0%
- Observed antifungal activity O (%) (Botrytis cinerea [2]; 25 days, 600 ppm fenhexamid or both): 0%
- Observed antifungal activity O (%) (Botrytis cinerea [2]; 26 days, 600 ppm fenhexamid or both): 0%

SMILES: O=C(Nc1ccccc1-c1ccc(Cl)cc1)c1cccnc1Cl [Boscalid, boscalid]
- Observed antifungal activity O (%) (Penicillium italicum; 7 days, 500 ppm natamycin, 800 ppm boscalid or both): 54%
- Observed antifungal activity O (%) (Penicillium italicum; 8 days, 500 ppm natamycin, 800 ppm boscalid or both): 40%
- Observed antifungal activity O (%) (Penicillium italicum; 9 days, 500 ppm natamycin, 800 ppm boscalid or both): 39%
- Observed antifungal activity O (%) (Penicillium italicum; 10 days, 500 ppm natamycin, 800 ppm boscalid or both): 29%
- Observed antifungal activity O (%) (Penicillium italicum; 11 days, 250 ppm natamycin, 400 ppm boscalid or both): 35%
- Observed antifungal activity O (%) (Penicillium italicum; 11 days, 500 ppm natamycin, 800 ppm boscalid or both): 35%
- Observed antifungal activity O (%) (Penicillium italicum; 12 days, 250 ppm natamycin, 400 ppm boscalid or both): 22%
- Observed antifungal activity O (%) (Penicillium italicum; 12 days, 500 ppm natamycin, 800 ppm boscalid or both): 18%
- Observed antifungal activity O (%) (Penicillium italicum; 13 days, 250 ppm natamycin, 400 ppm boscalid or both): 24%
- Observed antifungal activity O (%) (Penicillium italicum; 13 days, 500 ppm natamycin, 800 ppm boscalid or both): 20%
- Observed antifungal activity O (%) (Penicillium italicum; 14 days, 250 ppm natamycin, 400 ppm boscalid or both): 15%
- Observed antifungal activity O (%) (Penicillium italicum; 14 days, 500 ppm natamycin, 800 ppm boscalid or both): 8%
- Observed antifungal activity O (%) (Penicillium italicum; 15 days, 250 ppm natamycin, 400 ppm boscalid or both): 10%
- Observed antifungal activity O (%) (Penicillium italicum; 15 days, 500 ppm natamycin, 800 ppm boscalid or both): 8%
- Observed antifungal activity O (%) (Penicillium italicum; 17 days, 250 ppm natamycin, 400 ppm boscalid or both): 6%
- Observed antifungal activity O (%) (Penicillium italicum; 17 days, 500 ppm natamycin, 800 ppm boscalid or both): 0%
- Observed antifungal activity O (%) (Penicillium italicum; 18 days, 250 ppm natamycin, 400 ppm boscalid or both): 1%

SMILES: CC1=C(C(=O)Nc2ccccc2)SCCO1 [Carboxin, carboxin]
- Observed antifungal activity O (%) (Botrytis cinerea [2]; 17-19 days, 800 ppm carboxin or both): 67%
- Observed antifungal activity O (%) (Botrytis cinerea [2]; 20-21 days, 800 ppm carboxin or both): 55%
- Observed antifungal activity O (%) (Botrytis cinerea [2]; 22 days, 800 ppm carboxin or both): 45%
- Observed antifungal activity O (%) (Botrytis cinerea [2]; 24 days, 800 ppm carboxin or both): 42%
- Observed antifungal activity O (%) (Botrytis cinerea [2]; 25 days, 800 ppm carboxin or both): 41%
- Observed antifungal activity O (%) (Botrytis cinerea [2]; 26 days, 800 ppm carboxin or both): 38%
